The values below come from US6187807A, “Methods of use and compositions of (S) (-)-amisulpride” (Sanofi-Synthelabo, priority 1999, dated 2001).

Structures are written as SMILES.

Series [1] can be described thus: Antagonism of apomorphine-induced stereotypies. The format is in vivo. The following applies: rat, in vivo; ip; apomorphine 0.5 mg/kg sc, 30 min after drug. Here is the method: (§1) The propensity of the drugs to induce extrapyramidal side effects was assessed by measuring their potential to induce catalepsy and to antagonize apomorphine-induced stereotyped behaviour and the sedative potential of the drugs was evaluated by their capacity to decrease spontaneous locomotor activity in the rat.
(§2) For scoring stereotypies, the following scale was used: 0: asleep; 1: awake; quiet; 2: locomotion, head bobbing; 3: sniffing; 4: licking; 5: chewing/gnawing. For each rat, a global score was calculated by averaging the 3 stereotypy scores obtained at 10 min intervals.

The subject of series [2] is apomorphine-induced stereotypies. Description: Antagonism of apomorphine-induced stereotypies. Format: in vivo. As to conditions: comparison in words. Here is the method:
as §1, §2

The nature of series [3]: in vivo. The following applies: rat, ip, measured 2 hours and 4 hours after drug, read-out: Induction of catalepsy (ED50). As to the method: as §1
The occurrence of catalepsy in rats was assessed using the four-cork test. This measurement was performed by placing each paw of the rat on a 2.5 cm high cork (diameter 1.2 cm). Distance between contralateral corks was 8 cm and between ipsilateral corks 13 cm. Catalepsy time was measured for a maximum of 2 min at 2 hours, and 4 hours after ip drug treatment.

Series [4] can be described thus: in vivo. The following applies: rat, ip, 20 min recording, 30 min after drug, read-out: Decrease in spontaneous locomotor activity (ED50). Here is the method:
as §1
Spontaneous locomotor activity was measured for 20 min immediately after rats were placed in the activity cages, 30 min after drug treatment.

For series [5], the system named is apomorphine-induced hypermotility. Description: Antagonism of apomorphine-induced hypermotility. As to conditions: Rattus norvegicus, ip, 0.5 h, read-out: Antagonism of apomorphine-induced hypermotility (ED50).
From the text: These experimental conditions produce low baseline locomotor activity suitable for assessing increases in locomotion produced by apomorphine.
Series [6] relates to d-amphetamine-induced hypermotility. Description: Antagonism of d-amphetamine-induced hypermotility. The following applies: for ED50: Rattus norvegicus, ip, 0.5 h, read-out: Antagonism of d-amphetamine-induced hypermotility (ED50).
Method: d-Amphetamine-induced hyperactivity was recorded for 20 min, 30 min after injection of d-amphetamine (2 mg/kg, ip) immediately after placing rats in the activity cages without habituation according to Gh.

As usually defined, the ED50 is the midpoint of the dose-response relation. On to `CCN1CCC[C@H]1CNC(=O)c1cc(S(=O)(=O)CC)c(N)cc1OC` [(S)(-)-amisulpride, (S)-(-)-4-amino-N-[(1-ethylpyrrolidin-2-yl)methyl]-5-(ethylsulfonyl)-2-methoxybenzamide], for which the ED50 is 100 mg/kg in series [1]; over 100 mg/kg in “in vivo [3]”; 100 mg/kg in the series “in vivo [4]”; 15 mg/kg in series [5]; 1.2 mg/kg in series [6]. For the same molecule, in series [2], the “Potency at antagonizing apomorphine-induced stereotypies, (S)(-)-amisulpride compared with (R,S)-amisulpride” value was “equipotent”. Besides, the “Potency in tests predictive of antipsychotic activity, compared with (R,S)-amisulpride” value in series [6] (antagonism of apomorphine or amphetamine hyperlocomotion, in words) is recorded as “twice as potent”.

For the molecule `CCN1CCCC1CNC(=O)c1cc(S(=O)(=O)CC)c(N)cc1OC` (racemic) [(R,S)-amisulpride, reference compound], the ED50 in series [1] is 115 mg/kg; in the series “in vivo [3]”, over 100 mg/kg; in the series “in vivo [4]” it was 100 mg/kg; in series [5] it was 30 mg/kg; in series [6], 3 mg/kg. For the same molecule, the “Potency at antagonizing apomorphine-induced stereotypies, (S)(-)-amisulpride compared with (R,S)-amisulpride” value in series [2] is recorded as “equipotent”.
